The text below walks through data of patent US20240383853A1, “OXIMES AND THEIR USE IN TREATMENT OF GBA-RELATED DISEASES” (ZEVRA DENMARK A/S, priority 2021, published 2024).

The experiment concerns the target T1, glucosylceramidase (GCase, GBA) in human fibroblast cell line GM10915 harboring the L444P GBA mutation (Homo sapiens, UniProt P04062, L483P).
T1 construct: Human fibroblast cell line GM10915 harboring the L444P GBA mutation; host or cells: GM10915 human fibroblasts
T1 sequence (P04062 40-536 L483P): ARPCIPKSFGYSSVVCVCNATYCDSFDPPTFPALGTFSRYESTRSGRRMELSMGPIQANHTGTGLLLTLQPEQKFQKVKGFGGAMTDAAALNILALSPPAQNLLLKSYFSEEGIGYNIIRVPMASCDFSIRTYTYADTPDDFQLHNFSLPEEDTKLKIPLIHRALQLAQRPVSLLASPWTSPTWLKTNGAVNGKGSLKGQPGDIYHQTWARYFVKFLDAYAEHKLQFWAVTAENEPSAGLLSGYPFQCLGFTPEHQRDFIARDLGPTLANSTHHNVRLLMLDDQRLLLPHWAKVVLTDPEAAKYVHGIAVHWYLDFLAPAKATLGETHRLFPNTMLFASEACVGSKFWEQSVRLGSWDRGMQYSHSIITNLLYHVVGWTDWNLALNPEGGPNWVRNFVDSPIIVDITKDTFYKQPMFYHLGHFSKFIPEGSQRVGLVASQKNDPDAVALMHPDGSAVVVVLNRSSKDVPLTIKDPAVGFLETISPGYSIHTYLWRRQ
Nature of the experiment: GCase activity assay (4-MUG substrate, normalised to crystal violet staining) in GM10915 fibroblasts. The following applies: five days exposure; for GBA EC1.5: concentration where Percent GCase activity = 150% (1.5-fold induction), 8-point dose range; for GBA Emax / Emax: maximum Percent GCase activity relative to untreated cells in the dose range tested. In kind it is cell-based. As for the experimental part:
Human fibroblast cell line GM10915 harboring the L444P GBA mutation was obtained from Coriell Biorepositories. All chemicals (Glacial acetic acid, Glycine, 4-Methylumbelliferyl b-D-glucopyranoside (4-MUG), Sodium acetate trihydrate, Sodium hydroxide, Crystal violet, SDS, Ammonium hydroxide) were obtained from Sigma-Aldrich (Denmark). Compounds tested for GCase activity were dissolved in H2O or DMSO.
The GM10915 cell line was cultured under standard cell culture conditions (37° C. and 5% CO2) in complete DMEM medium supplemented with nonessential amino acids (NEAA), 1% Pen-Strep and 12% FCS. Cells were seeded at a density of 10^4 cells/well in 100 μL complete medium in one black 96-well plate for glucosylceramidase (GCase) activity measurement and in one clear 96-well plate for crystal violet staining to correct for cell density. Crystal violet staining is performed to obtain quantitative information about the relative density of cells adhering to multi-wells plates.
The assay was adapted from Sawkar et al (2002) and briefly described in the following. The day after seeding of cells, the medium was replaced with fresh medium containing the compounds to be tested. Compounds were tested in duplicate and in an 8-point diluted dose range to obtain a dose response. Cells were exposed with compounds for five days. Fresh compound was added every 2-3 days. PBS was included to define the basal level of GCase activity.
Cells were washed three times with 200 μL PBS per well and 50 μL of 2.5 mM 4-MUG buffer (4-MUG dissolved in 0.2 M acetate buffer pH 4.0) was added and the cells were incubated at 37° C., 5% CO2 for 23 hours. The reaction was stopped by adding 150 μL 0.2 M glycine buffer (pH 10.8). Fluorescence was measured with a Varioskan® Flash reader (Thermo Scientific) at an excitation/emission setting of 365/445 nm.
Cells were treated with compounds in a parallel setup identical to the setup to test for GCase activity. At the end of compound treatment, cells were washed once with 200 μL PBS per well and 50 μL 0.1% w/v crystal violet (in H2O) was added. Following 10 min. of incubation, the crystal violet solution was removed, and the cells were washed three times with 200 μL PBS and 100 μL 1% SDS was added to solubilize the stain. The plate was agitated on an orbital shaker for 10-30 min. Absorbance (A) is measured at […] using a Varioskan® Flash reader (Thermo Scientific).
The fluorescence signal (F) derived from the GCase measurement is normalized to the absorbance signal (A) derived from the crystal violet staining. The percent GCase activity resulting from compound treatment is calculated relative to the basal activity obtained from untreated cells.
Maximal effect of compounds (Emax) is determined from the dose response effects as the maximum “Percent GCase activity” achieved in the dose range tested.

Counter-ions that a name gives are not always drawn. Marks after values point to notes of the source that are not given here.

Regarding “4-(3-chloropyridin-4-yl)-N-(2-hydroxy-3-(piperidin-1-yl)propoxy)piperidine-4-carbimidoyl chloride tri-2,2,2-trifluoroacetate [ID 535]”, the “GBA EC1.5” value is 36 µM and the “GBA Emax” value is reported as 186%.
Regarding `CC1(C(Cl)=NOC[C@@H](O)CN2CCCCC2)CCNCC1` (single isomer, unassigned) [ID 384], the “GBA EC1.5” value was determined as 32 µM and the Emax (in general, the size of the effect at its maximum, as opposed to the concentration needed) was determined as 352%.
For the molecule `CC1(C(Cl)=NOCC(O)CN2CC3CC3C2)CCNCC1` (single isomer, unassigned) [ID 403, N-(3-(3-azabicyclo[3.1.0]hexan-3-yl)-2-hydroxypropoxy)-4-methylpiperidine-4-carbimidoyl chloride di-2,2,2-trifluoroacetate], the “GBA EC1.5” value is 48 µM and the Emax was 264%.
For the molecule `CC1(C(Cl)=NOCC(O)CN2CC3CCC2C3)CCNCC1` (single isomer, unassigned) [ID 410, N-(3-(2-azabicyclo[2.2.1]heptan-2-yl)-2-hydroxypropoxy)-4-methylpiperidine-4-carbimidoyl chloride di-2,2,2-trifluoroacetate], the “GBA EC1.5” value came out at 43 µM and the Emax was 344%.
The like results for `CN1CCN(CC(O)CON=C(Cl)C2(Cc3cccnc3)CCNCC2)CC1` (single isomer, unassigned) [ID 513, N-(2-hydroxy-3-(4-methylpiperazin-1-yl)propoxy)-4-(pyridin-3-ylmethyl)piperidine-4-carbimidoyl chloride tetra-2,2,2-trifluoroacetate] were, in that order, 35 µM and 174%.
Take `CN(C)CCC(Br)=NOCC(O)CN1CCCCC1` (single isomer, unassigned) [ID 532, 3-(dimethylamino)-N-(2-hydroxy-3-(piperidin-1-yl)propoxy)propanimidoyl bromide]: the “GBA EC1.5” value is 30 µM and the Emax amounted to 239%.
The like results for `CC1(/C(Cl)=N/OC[C@H](O)CN2CCCCC2)CCNCC1` (stereo in doubt) [ID 387, (R)—N-(2-hydroxy-3-(piperidin-1-yl)propoxy)-4-methylpiperidine-4-carbimidoyl chloride di-2,2,2-trifluoroacetate] were, in that order, 35 µM and 379%.
Take `Nc1c(Br)cc(Br)cc1CN[C@H]1CC[C@H](O)CC1` [Ambroxol, reference compound]: the “GBA EC1.5” value is >20* *The 1.5-fold induction criteria was not reached within the tested concentration range μM and the Emax was found to be 127%.
`[O-][n+]1cccc(/C(Br)=N/OCC(O)CN2CCCCC2)c1` (centres unmarked) [ID 257]: the “GBA EC1.5” value is 35 µM and the Emax is 307%.
The like results for `CC1(/C(Cl)=N/OCC(O)CN2CCCCC2)CCNCC1` (centres unmarked) [ID 336, N-(2-hydroxy-3-(piperidin-1-yl)propoxy)-4-methylpiperidine-4-carbimidoyl chloride dihydrochloride] were, in that order, 37 µM and 320%.
For `[O-][n+]1ccc(/C(Br)=N/OCC(O)CN2CCCCC2)cc1` (centres unmarked) [ID 352] the same measures were 45 µM and 474%.
For `CC1(/C(Cl)=N/OCC(O)CN2CCC(F)CC2)CCNCC1` (centres unmarked) [ID 399, N-(3-(4-fluoropiperidin-1-yl)-2-hydroxypropoxy)-4-methylpiperidine-4-carbimidoyl chloride di-2,2,2-trifluoroacetate], the “GBA EC1.5” value was determined as 34 µM and the Emax turned out to be 314%.
For the molecule `CN1CCN(CC(O)CO/N=C(\Cl)C2(C)CCNCC2)CC1` (centres unmarked) [ID 402, N-(2-hydroxy-3-(4-methylpiperazin-1-yl)propoxy)-4-methylpiperidine-4-carbimidoyl chloride tri-2,2,2-trifluoroacetate], the “GBA EC1.5” value came to 50 µM and the Emax worked out at 408%.
Turning to `CCC1(/C(Cl)=N/OCC(O)CN2CCCCC2)CCNCC1` (centres unmarked) [ID 409, 4-ethyl-N-(2-hydroxy-3-(piperidin-1-yl)propoxy)piperidine-4-carbimidoyl chloride di-2,2,2-trifluoroacetate], the “GBA EC1.5” value was 25 µM and the Emax stood at 255%.
As for `OC(CO/N=C(\Cl)C1(c2ccccn2)CCNCC1)CN1CCCCC1` (centres unmarked) [ID 415, N-(2-hydroxy-3-(piperidin-1-yl)propoxy)-4-(pyridin-2-yl)piperidine-4-carbimidoyl chloride tri-2,2,2-trifluoroacetate], the “GBA EC1.5” value was 23 µM and the Emax was 235%.
As to `OC(CO/N=C(\Cl)C1(Cc2cccnc2)CCNCC1)CN1CCCCC1` (centres unmarked) [ID 419, N-(2-hydroxy-3-(piperidin-1-yl)propoxy)-4-(pyridin-3-ylmethyl)piperidine-4-carbimidoyl chloride tri-2,2,2-trifluoroacetate], under “listed as 419”, the “GBA EC1.5” value was 12 µM and the “GBA Emax” value was determined as 387%.
Consider `CN(C)CC/C(Cl)=N\OCC(O)CN1CCCCC1` (centres unmarked) [ID 446, 3-(dimethylamino)-N-(2-hydroxy-3-(piperidin-1-yl)propoxy)propanimidoyl chloride], for which the “GBA EC1.5” value was found to be 6 µM and the Emax turned out to be 176%.
Consider `COCCC1(/C(Cl)=N/OCC(O)CN2CCCCC2)CCNCC1` (centres unmarked) [ID 448, N-(2-hydroxy-3-(piperidin-1-yl)propoxy)-4-(2-methoxyethyl)piperidine-4-carbimidoyl chloride di-2,2,2-trifluoroacetate], for which the “GBA EC1.5” value is 34 µM and the Emax was 468%.
`OC(CON=C(Br)c1ccnnc1)CN1CCCCC1` (centres unmarked) [ID 452, N-(2-hydroxy-3-(piperidin-1-yl)propoxy)pyridazine-4-carbimidoyl bromide]: the “GBA EC1.5” value was 18 µM and the Emax is 572%.
On to `Cc1ncc(C(Cl)=NOCC(O)CN2CCCCC2)s1` (centres unmarked) [ID 453, N-(2-hydroxy-3-(piperidin-1-yl)propoxy)-2-methylthiazole-5-carbimidoyl chloride], for which the “GBA EC1.5” value is 39 µM and the Emax was 202%.
`OC(CON=C(Cl)c1ccc(Cl)nc1)CN1CCCCC1` (centres unmarked) [ID 466, 6-chloro-N-(2-hydroxy-3-(piperidin-1-yl)propoxy)nicotinimidoyl chloride]: the “GBA EC1.5” value was 18 µM and the Emax came to 221%.
In the case of `Cc1cc(C(Cl)=NOCC(O)CN2CCCCC2)on1` (centres unmarked) [ID 475, N-(2-hydroxy-3-(piperidin-1-yl)propoxy)-3-methylisoxazole-5-carbimidoyl chloride], the “GBA EC1.5” value was 24 µM and the Emax is 354%.
For the molecule `OC(CO/N=C(\Cl)C1(c2cccnc2)CCNCC1)CN1CCCCC1` (centres unmarked) [ID 492, N-(2-hydroxy-3-(piperidin-1-yl)propoxy)-4-(pyridin-3-yl)piperidine-4-carbimidoyl chloride tri-2,2,2-trifluoroacetate], the “GBA EC1.5” value stood at 42 µM and the Emax amounted to 383%.
With `Cc1cc(Cl)ncc1C(Cl)=NOCC(O)CN1CCCCC1` (centres unmarked) [ID 501, 6-chloro-N-(2-hydroxy-3-(piperidin-1-yl)propoxy)-4-methylnicotinimidoyl chloride], the “GBA EC1.5” value stood at 19 µM and the Emax amounted to 128%.
On to `CC(O)(CON=C(Cl)c1ccc(Cl)nc1)CN1CCCCC1` (centres unmarked) [ID 502, 6-chloro-N-(2-hydroxy-2-methyl-3-(piperidin-1-yl)propoxy)nicotinimidoyl chloride], for which the “GBA EC1.5” value amounted to 23 µM and the Emax is 131%.
